Several values for one entry are separate records, joined by “and”; a condition that tells them apart may be missing. Identical values can stand only once. Activity calls are given as the source filed them.
How the values were obtained:
[1] = biological target: Fatty acid synthase (Homo sapiens, UniProt P49327); assay: FAS thioesterase domain inhibitors, dose response, biochemical, endpoint fluorescence intensity, uHTS hits (AID 624327); assay type: functional;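 note: fluorescence from hydrolysis of an O-methyl fluorescein acyl ester substrate by the enzyme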
[2] = HepG2 cell cytotoxicity, dose response, cytotoxicity control for Shn3 inhibitor project, CellTiter-Glo, cherry-picked (AID 624134); assay type: functional, cell-based
[3] = HEp-2 cell cytotoxicity, dose response, cytotoxicity control for RSV inhibitor project, HTS (AID 2410); assay type: functional; conditions: human respiratory syncytial virus
[4] = biological target: Voltage-gated N-type calcium channel alpha-1B subunit/Amyloid beta A4 precursor protein-binding family A member 1 (Homo sapiens, UniProt Q00975+Q02410); assay type: protein assay
[5] = growth suppression of beta-catenin-knockout colon cells, dose response, cell-based, HCT116, human colon tumor (AID 1045); assay type: functional;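 note: HCT116 colon tumor cells with beta catenin knocked out; cells exposed to compound for 60 hours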
[6] = biological target: Genome polyprotein (dengue virus type 2, UniProt P29990); assay: Dengue-2 NS5 methyltransferase inhibitors, primary screen, biochemical, confirmation dose response (AID 588689); assay type: functional
[7] = inhibitors of intracellular T. cruzi replication, confirmation, NIH3T3 host cells, beta-gal luminescence (AID 2044); assay type: functional, cell-based;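 note: intracellular parasites grown in NIH/3T3 mouse fibroblasts as host cells; luminescent beta-galactosidase reporter signal from transgenic T. cruzi replicating inside host cells; inhibitors lower the luminescence signal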
[8] = off-target signal loss in HeLa-CEM21 co-culture – HeLa F-luc CTL cells, cherry-picked, counter-screen for HIV-1 Env fusion inhibitor project, dose response (AID 652040); assay type: functional, cell-based;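 note: potency for signal decrease marking cytotoxic or nonspecific inhibition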
[9] = biological target: T1, Zinc finger protein mex-5 (Caenorhabditis elegans, UniProt Q9XUB2); assay: MEX-5/TCR-2 RNA interaction inhibitors, dose response, biochemical, C. elegans, fluorescence polarization (AID 1960)
T1 sequence (Q9XUB2 whole entry): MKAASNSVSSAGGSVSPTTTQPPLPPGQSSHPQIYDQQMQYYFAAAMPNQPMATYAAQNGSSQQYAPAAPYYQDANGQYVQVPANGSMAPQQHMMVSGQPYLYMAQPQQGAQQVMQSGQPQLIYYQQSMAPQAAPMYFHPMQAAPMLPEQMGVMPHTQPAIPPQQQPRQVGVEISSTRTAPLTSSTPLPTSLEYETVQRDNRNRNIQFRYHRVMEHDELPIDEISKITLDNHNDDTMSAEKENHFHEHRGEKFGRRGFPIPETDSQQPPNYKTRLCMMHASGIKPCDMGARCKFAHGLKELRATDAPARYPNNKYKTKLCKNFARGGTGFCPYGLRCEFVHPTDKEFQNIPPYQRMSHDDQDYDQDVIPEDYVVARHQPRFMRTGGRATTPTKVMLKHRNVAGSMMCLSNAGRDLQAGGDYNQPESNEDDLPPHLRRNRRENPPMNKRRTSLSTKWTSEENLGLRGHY

[10] = inhibitors of clade B AD8 Env fusion, dose response, cell-based, cherry-pick (AID 652062); assay type: functional;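 note: luciferase signal from cell-cell fusion driven by HIV-1 clade B AD8 Env; potency is for inhibitors of fusion seen as a drop in luminescence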
[11] = biological target: T2, RNA-binding protein pos-1 (Caenorhabditis elegans, UniProt G5EF15); assay: inhibitors of POS-1/mex-3 RNA binding, dose response, biochemical, fluorescence polarization (AID 1964);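 note: purified POS-1 fused to maltose binding protein made in E. coli; potency of compounds blocking POS-1 binding to fluorescent RNA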
T2 sequence (G5EF15 whole entry): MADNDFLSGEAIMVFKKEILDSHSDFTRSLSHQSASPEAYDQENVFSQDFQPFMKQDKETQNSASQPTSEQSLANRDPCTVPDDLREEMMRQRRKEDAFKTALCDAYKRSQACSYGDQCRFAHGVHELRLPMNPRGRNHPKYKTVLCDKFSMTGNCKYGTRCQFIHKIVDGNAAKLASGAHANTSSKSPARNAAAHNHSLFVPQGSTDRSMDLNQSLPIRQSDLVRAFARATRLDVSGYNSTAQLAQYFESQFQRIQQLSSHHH

[12] = biological target: Serine/threonine-protein phosphatase PP1-alpha catalytic subunit (Homo sapiens, UniProt P62136); assay: PP1 phosphatase inhibitors, dose response, biochemical, fluorescence (AID 2394)
[13] = biological target: T3, Sentrin-specific protease 8 (Homo sapiens, UniProt Q96LD8); assay type: functional;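 note: luminescence read-out of SENP8 inhibition, dose-response confirmation following an ultra-high-throughput screen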
T3 sequence (Q96LD8 whole entry): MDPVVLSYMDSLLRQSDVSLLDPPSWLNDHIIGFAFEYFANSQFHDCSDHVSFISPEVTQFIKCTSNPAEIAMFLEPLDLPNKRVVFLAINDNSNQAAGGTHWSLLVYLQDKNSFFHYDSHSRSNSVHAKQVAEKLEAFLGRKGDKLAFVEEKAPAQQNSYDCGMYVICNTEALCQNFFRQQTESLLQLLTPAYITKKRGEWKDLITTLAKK

[14] = biological target: T4, Serine/threonine-protein phosphatase (Homo sapiens, UniProt Q9BPW0); assay: PP5 phosphatase inhibitors, dose response, biochemical, fluorescence (AID 2395)
T4 sequence (Q9BPW0 whole entry): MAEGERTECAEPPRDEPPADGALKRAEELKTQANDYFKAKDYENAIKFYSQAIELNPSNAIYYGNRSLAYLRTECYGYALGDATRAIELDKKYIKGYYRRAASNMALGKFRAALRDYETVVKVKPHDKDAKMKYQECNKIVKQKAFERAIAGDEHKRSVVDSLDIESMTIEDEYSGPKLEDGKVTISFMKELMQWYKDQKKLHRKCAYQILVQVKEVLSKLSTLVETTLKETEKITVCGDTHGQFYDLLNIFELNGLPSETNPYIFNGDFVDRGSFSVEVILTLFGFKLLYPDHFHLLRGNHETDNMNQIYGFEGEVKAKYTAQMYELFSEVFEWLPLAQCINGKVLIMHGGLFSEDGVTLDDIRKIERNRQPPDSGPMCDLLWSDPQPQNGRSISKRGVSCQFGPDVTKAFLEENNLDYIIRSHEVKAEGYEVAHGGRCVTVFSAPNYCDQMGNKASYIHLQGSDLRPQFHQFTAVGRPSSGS

[15] = biological target: RNA-editing ligase 1, mitochondrial (Trypanosoma brucei brucei, UniProt P86926); assay: TbREL1 ligase inhibitors, dose response, biochemical, fluorescence, Trypanosoma brucei (AID 1117295); assay type: functional
[16] = biological target: T5, Caspase-3 (Homo sapiens, UniProt P42574); assay type: functional;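 note: Dose-response selectivity test against caspase-3 for candidate inhibitors of sentrin-specific proteases (SENPs)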
T5 sequence (P42574 whole entry): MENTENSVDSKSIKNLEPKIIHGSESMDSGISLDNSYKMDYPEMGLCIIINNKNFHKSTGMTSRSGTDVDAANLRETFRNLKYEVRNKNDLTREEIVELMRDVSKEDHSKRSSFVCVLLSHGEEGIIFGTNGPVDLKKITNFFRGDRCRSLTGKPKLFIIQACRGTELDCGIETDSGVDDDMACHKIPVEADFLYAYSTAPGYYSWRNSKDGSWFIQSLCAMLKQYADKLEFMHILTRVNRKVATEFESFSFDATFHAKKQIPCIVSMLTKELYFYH

Serine/threonine-protein phosphatase PP1-alpha catalytic subunit, sequence (P62136 whole entry): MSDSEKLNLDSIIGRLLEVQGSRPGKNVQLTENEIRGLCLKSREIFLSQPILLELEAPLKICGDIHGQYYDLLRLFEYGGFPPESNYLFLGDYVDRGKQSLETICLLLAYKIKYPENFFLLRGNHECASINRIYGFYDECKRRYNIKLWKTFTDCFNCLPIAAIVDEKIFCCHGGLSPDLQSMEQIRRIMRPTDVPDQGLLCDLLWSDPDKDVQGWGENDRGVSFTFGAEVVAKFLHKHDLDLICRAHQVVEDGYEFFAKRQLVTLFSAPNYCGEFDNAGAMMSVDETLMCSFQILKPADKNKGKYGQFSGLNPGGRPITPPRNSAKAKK
RNA-editing ligase 1, mitochondrial, sequence (P86926 whole entry): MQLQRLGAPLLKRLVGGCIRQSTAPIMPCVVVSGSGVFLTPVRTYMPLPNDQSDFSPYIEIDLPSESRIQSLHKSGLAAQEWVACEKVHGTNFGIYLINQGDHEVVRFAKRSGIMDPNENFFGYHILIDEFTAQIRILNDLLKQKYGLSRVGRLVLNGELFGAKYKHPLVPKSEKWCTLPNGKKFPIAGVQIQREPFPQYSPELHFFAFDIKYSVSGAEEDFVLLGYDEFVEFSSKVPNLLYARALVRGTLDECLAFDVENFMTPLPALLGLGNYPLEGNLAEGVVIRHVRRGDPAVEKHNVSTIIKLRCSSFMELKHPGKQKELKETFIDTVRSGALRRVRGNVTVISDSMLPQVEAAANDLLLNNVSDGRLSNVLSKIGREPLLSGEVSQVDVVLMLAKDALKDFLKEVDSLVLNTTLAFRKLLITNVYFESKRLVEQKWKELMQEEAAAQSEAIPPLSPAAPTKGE
Voltage-gated N-type calcium channel alpha-1B subunit/Amyloid beta A4 precursor protein-binding family A member 1, sequence (Q00975 whole entry): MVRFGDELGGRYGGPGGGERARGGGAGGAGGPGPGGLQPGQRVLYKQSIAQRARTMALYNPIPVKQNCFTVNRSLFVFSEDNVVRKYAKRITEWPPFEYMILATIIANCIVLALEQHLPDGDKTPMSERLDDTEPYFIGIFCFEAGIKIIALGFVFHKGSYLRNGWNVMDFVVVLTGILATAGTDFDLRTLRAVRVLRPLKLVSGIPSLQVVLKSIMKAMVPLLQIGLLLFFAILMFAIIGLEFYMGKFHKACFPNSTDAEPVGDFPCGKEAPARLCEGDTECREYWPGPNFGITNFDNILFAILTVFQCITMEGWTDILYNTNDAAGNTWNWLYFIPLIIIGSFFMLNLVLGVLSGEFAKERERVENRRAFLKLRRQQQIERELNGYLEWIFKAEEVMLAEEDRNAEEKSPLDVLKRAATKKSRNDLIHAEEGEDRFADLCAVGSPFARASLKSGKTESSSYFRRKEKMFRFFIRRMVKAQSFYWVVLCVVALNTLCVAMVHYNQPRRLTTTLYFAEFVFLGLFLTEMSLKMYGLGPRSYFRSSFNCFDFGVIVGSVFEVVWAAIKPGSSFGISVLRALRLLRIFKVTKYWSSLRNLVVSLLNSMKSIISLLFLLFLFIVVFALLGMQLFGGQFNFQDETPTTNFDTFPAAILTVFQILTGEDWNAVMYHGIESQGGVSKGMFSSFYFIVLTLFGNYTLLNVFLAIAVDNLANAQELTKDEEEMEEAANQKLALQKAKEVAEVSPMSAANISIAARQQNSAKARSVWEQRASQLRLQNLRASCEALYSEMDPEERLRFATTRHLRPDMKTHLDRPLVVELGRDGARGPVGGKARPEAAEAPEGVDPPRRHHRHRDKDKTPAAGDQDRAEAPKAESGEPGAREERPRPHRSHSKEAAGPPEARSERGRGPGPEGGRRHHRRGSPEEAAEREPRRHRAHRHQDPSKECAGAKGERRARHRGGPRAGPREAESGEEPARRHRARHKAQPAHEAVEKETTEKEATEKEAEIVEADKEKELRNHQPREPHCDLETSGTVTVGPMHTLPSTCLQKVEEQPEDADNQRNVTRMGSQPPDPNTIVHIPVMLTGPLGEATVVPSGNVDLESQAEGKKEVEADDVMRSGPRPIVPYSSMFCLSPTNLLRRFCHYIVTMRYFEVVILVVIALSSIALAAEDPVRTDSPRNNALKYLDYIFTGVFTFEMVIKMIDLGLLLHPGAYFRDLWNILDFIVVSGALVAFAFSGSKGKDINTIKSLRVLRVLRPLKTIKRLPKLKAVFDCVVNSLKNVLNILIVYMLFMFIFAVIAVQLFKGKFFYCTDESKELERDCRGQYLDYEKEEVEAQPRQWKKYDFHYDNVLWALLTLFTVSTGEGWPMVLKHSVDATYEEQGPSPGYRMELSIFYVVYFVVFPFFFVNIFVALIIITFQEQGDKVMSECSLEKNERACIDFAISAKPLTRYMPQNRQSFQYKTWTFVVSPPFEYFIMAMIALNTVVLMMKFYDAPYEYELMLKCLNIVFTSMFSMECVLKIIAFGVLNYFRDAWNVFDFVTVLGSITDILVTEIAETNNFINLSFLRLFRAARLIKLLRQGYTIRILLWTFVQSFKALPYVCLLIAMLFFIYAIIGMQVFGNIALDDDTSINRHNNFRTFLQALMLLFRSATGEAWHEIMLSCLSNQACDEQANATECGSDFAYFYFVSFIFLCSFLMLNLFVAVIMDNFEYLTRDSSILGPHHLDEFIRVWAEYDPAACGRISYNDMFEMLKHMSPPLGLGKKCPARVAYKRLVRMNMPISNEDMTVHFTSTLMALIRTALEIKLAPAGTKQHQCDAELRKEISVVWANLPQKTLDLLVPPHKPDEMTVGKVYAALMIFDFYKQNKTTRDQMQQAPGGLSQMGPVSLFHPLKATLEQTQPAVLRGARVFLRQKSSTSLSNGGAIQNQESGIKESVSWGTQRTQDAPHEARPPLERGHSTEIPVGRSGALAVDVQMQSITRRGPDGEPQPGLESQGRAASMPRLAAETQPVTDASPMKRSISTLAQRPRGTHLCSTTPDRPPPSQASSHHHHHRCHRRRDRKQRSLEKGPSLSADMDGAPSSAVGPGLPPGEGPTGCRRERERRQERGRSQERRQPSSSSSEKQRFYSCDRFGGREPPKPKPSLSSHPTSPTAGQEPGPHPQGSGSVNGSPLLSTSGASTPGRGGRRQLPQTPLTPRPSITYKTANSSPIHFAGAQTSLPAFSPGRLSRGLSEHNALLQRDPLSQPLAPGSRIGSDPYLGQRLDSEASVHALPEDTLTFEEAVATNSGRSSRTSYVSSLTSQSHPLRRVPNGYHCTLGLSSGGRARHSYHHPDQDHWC
Voltage-gated N-type calcium channel alpha-1B subunit/Amyloid beta A4 precursor protein-binding family A member 1, sequence (Q02410 whole entry): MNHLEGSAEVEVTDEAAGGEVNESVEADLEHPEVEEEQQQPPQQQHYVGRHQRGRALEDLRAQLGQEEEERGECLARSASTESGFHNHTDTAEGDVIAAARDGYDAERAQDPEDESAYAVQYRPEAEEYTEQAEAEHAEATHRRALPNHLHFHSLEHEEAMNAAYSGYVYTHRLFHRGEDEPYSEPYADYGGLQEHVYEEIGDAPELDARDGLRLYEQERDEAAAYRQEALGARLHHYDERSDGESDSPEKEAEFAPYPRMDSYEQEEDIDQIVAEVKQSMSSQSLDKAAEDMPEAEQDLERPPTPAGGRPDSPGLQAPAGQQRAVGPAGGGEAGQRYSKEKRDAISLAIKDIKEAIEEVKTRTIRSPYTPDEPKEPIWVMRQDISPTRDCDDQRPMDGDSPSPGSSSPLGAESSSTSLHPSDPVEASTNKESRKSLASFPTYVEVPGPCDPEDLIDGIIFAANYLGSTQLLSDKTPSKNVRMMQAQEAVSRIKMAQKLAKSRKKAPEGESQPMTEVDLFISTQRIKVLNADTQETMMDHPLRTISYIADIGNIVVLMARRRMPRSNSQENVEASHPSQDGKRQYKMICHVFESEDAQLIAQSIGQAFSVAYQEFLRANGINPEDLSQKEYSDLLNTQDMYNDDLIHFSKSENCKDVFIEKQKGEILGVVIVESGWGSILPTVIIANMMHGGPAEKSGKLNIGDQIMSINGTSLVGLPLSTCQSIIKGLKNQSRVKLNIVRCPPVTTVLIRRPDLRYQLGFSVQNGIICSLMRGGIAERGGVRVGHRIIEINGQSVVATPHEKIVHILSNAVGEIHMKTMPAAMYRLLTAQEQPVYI
Genome polyprotein, sequence (P29990 2492-3391 limits assumed): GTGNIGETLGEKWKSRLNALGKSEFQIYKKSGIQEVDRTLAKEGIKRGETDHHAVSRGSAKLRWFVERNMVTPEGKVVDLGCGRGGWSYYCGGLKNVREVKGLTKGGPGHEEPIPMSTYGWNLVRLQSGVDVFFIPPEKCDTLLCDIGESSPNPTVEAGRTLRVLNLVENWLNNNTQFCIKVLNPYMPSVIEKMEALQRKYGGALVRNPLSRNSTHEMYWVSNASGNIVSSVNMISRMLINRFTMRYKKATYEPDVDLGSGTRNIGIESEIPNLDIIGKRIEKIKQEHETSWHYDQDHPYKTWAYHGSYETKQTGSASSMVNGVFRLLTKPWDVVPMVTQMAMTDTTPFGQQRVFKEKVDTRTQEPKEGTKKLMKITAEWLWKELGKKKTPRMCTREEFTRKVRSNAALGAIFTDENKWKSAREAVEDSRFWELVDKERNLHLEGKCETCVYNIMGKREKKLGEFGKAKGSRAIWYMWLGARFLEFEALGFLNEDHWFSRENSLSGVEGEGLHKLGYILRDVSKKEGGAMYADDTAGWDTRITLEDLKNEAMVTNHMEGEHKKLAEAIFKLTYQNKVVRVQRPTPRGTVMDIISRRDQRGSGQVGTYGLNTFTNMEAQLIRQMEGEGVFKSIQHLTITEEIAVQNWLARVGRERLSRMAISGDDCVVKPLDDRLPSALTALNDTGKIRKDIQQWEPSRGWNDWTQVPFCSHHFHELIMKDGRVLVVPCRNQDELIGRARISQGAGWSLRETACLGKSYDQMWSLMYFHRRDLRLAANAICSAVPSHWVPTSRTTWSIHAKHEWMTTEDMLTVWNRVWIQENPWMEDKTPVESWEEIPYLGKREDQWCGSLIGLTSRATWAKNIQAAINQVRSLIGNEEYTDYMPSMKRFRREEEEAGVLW

In the case of `O=C(Nc1ccccc1Cl)/C(Cl)=C(\Cl)[S+]([O-])c1ccccc1` (stereo unspecified), the IC50 [1] was 4.66 µM (active) and the AC50 [2] was 10.8 µM (active).
In the case of `Cc1cc(C)nc(/N=c2/ssnc2Cl)c1`, the CC50 [3] was 17.4 µM (active), the IC50 [4] was > 50 µM (inactive) and the EC50 [5] was 25.8 µM (active).
For `Cc1ccc(C)c(S(=O)(=O)/N=C2\C=C(NS(=O)(=O)c3ccccc3)C(=O)c3ccccc32)c1`, the IC50 [6] was 97.8 µM (active).
For `CCCCCCCCCCCCCCCCn1cc[n+](C)c1`, the EC50 [7] was < 100 nM (active) and 103 nM (active), the AC50 [8] was 7.76 µM (active) and the EC50 [9] was > 300 µM (inconclusive). The AC50 [10] was 5.26 µM (active) and the EC50 [11] was > 300 µM (not active).
For `O=C(NC1(O)C(=O)c2ccccc2C1=O)c1ccccc1`, the IC50 [12] was 49 µM (not active), the IC50 [13] was 4.39 µM (active) and the IC50 [14] was > 0.828 µM (active). The IC50 [15] was 13.7 µM (inactive) and the IC50 [16] was 69.9 µM (active).
